Literature values as cited in patent publication US10114931B2, “Pharmaceutical platform technology for the development of natural products” (Sinoveda Canada Inc., priority 2007, dated 2018).
Where two headings read alike, the source gives them in different places. One block for each compound: values may come before it.

How the values were obtained:
[1] = in vivo
osteoblast formation = details: compared with genistein
[2] = in vivo; remark: listed apart in the source
[3] = tested on: bone loss in early postmenopausal women; details: 54 mg/day, given orally for a year
[4] = Yan et al., 2008

Detection in the blood stream [1]: not detected
Structure (SMILES): C[C@@H]1O[C@@H](OC[C@H]2O[C@@H](Oc3c(-c4ccc(O)c(O)c4)oc4cc(O)cc(O)c4c3=O)[C@H](O)[C@@H](O)[C@@H]2O)[C@H](O)[C@H](O)[C@H]1O [Rutin]

Structure (SMILES): O=c1c(-c2ccc(O)cc2)coc2cc(O)ccc12 [daidzein]
Potency in osteoblast formation in vitro (osteoblast formation): more potent
Bioavailability [2]: less than 5%

Structure (SMILES): O=c1c(-c2ccc(O)cc2)coc2cc(O)cc(O)c12 [genistein]
Efficacy compared with hormone replacement therapy [3]: as effective as hormone replacement therapy

Bioavailability [4]: less than 3%
Structure (SMILES): CCC/C=C1\OC(=O)C2=C1CCC=C2 [z-ligustilide]
